Data set [1] deals with 3D intestinal tissue. The settings on record: 3D intestine, apical to basal direction.
The nature of data set [2]: in vitro. The following applies: human.
In data set [3] the test system is prostaglandin E2 secretion. Nature of the data set: Prostaglandin E2 secretion, 3D intestinal tissue. Type of data set: cell-based, human. The settings on record: all doses, 24-hr treatment.
The target in data set [4] is CYP2C9 (Homo sapiens, UniProt P11712).
Data set [5] has as its system 2D Caco-2 monolayers. The following applies: 2D Caco-2 model.
Data set [6] deals with IMF tissue alone.
Data set [7] relates to 3D Caco-2 tissues. The settings on record: 3D Caco-2 model.
For data set [8], the target named is T1, BCRP (Homo sapiens, UniProt Q9UNQ0).
T1 sequence (Q9UNQ0 1-655): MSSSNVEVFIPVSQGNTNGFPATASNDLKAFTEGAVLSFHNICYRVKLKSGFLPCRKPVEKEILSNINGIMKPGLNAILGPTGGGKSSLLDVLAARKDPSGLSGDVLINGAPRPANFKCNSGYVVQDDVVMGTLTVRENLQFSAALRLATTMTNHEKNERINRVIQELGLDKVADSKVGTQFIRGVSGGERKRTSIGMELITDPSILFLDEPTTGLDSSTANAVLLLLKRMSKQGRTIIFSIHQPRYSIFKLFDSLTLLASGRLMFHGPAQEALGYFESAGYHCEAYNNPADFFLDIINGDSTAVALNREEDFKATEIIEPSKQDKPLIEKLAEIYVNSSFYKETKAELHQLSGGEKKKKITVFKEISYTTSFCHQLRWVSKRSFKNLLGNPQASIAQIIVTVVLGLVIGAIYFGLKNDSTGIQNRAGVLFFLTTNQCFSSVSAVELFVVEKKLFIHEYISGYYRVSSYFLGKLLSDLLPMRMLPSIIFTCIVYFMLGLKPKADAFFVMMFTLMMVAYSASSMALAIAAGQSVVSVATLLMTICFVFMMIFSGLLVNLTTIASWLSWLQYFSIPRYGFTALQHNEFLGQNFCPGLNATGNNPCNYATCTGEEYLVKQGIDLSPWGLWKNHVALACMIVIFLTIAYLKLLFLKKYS
Nature of the data set: in vitro. The settings on record: Efflux ratio (B to A)/(A to B), 3D intestinal tissue, dual inhibition with Ko143 and zosuquidar.

Data set [9] relates to CYP3A4.
Data set [10] concerns the target T2, P-gp (Homo sapiens, UniProt P08183). Nature of the data set: in vitro. The settings on record: Efflux ratio (B to A)/(A to B).
Data set [11] deals with 3D intestinal tissue. Kind of data set: LDH release after toxicant treatment, 3D intestinal tissue. The settings on record: TNF-α for 24 hr. Type of data set: cell-based, human. Background: Release of lactate dehydrogenase indicates damage to the cell membrane.
Data set [12] relates to 3D intestinal tissue. Type of data set: cell-based, human. The settings on record: 24-hr treatment.
The subject of data set [13] is TNF-α/nuclear factor (NF)-κB pathway. Nature of the data set: Gene expression of TNF-α/NF-κB pathway targets, 3D intestinal tissue. Type of data set: cell-based, human. The settings on record: TNF-α for 24 hr.
Data set [14] has as its target T2, P-gp. The settings on record: 3D intestinal tissue.

T2 sequence (P08183 whole entry): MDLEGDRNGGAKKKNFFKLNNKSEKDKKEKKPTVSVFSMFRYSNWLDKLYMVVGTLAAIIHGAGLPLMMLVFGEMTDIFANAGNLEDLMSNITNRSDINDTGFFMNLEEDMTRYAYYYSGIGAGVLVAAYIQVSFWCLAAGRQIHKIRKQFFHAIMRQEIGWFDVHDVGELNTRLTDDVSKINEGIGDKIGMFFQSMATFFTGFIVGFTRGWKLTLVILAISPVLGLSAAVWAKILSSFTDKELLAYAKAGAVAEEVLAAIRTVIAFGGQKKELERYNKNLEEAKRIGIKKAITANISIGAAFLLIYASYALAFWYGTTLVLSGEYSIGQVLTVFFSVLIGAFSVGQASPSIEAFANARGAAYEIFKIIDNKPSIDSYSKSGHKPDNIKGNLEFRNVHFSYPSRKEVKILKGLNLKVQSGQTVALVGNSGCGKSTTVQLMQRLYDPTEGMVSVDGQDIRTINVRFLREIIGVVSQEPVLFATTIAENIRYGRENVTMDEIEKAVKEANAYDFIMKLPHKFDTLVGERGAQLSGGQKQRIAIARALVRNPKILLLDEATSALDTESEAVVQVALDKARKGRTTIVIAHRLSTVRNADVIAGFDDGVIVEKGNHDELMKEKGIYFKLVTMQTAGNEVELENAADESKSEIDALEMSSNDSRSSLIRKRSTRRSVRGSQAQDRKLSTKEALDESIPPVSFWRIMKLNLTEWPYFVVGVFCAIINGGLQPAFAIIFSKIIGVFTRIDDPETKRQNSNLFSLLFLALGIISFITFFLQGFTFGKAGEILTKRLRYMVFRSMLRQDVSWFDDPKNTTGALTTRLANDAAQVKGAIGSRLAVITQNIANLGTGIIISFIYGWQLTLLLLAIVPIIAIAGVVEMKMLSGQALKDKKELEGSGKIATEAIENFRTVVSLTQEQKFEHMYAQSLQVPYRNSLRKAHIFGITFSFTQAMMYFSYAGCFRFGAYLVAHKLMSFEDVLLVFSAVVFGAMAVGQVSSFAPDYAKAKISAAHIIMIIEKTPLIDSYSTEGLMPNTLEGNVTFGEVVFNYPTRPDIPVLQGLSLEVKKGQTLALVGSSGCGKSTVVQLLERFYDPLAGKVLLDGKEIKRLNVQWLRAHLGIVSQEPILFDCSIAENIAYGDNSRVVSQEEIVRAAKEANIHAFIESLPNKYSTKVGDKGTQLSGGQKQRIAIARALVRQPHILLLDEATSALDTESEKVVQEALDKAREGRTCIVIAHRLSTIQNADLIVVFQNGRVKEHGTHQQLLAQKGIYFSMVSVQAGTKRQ
CYP2C9, sequence (P11712 whole entry): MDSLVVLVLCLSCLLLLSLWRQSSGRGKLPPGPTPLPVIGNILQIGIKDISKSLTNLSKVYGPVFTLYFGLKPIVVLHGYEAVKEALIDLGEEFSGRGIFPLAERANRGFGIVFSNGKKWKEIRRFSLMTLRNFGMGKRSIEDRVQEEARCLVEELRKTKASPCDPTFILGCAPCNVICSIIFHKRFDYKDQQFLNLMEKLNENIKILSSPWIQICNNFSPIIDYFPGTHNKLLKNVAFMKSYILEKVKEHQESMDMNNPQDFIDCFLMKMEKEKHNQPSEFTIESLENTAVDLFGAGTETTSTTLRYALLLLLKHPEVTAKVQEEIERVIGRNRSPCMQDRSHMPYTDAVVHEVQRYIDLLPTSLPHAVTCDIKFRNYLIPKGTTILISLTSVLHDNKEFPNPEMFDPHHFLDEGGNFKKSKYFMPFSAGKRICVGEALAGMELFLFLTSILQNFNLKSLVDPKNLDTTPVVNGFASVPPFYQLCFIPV

The term Papp denotes a coefficient for how fast a substance crosses the barrier. Take `CC(C)NCC(O)COc1cccc2ccccc12` (centres unmarked) [propranolol]: in data set [1], the Permeability class result is on record as “high”. This compound also gave a Papp in data set [2] of 14.8 ± 1.96 ×10⁻⁶ cm/s.
For `COc1ccc2c(c1)c(CC(=O)O)c(C)n2C(=O)c1ccc(Cl)cc1` [indomethacin], the “Prostaglandin E2 secretion” value in data set [3] is given as “inhibition of prostaglandin E2 secretion”.
`Nc1ccc(S(=O)(=O)Nc2ccnn2-c2ccccc2)cc1` [sulfaphenazole]: in data set [4], the “Effect on CYP2C9 activity (luminogenic P450 substrate conversion)” value is “significantly inhibited”.
With lucifer yellow, the values for the Papp in data set [5], in data set [1] and in [7] were 0.46 ± 0.25 ×10⁻⁶ cm/s, 0.45 ± 1.5 ×10⁻⁶ cm/s and 1.05 ± 0.1 ×10⁻⁶ cm/s, respectively. The same compound gave a Permeability (Papp) in data set [6] of 163 ± 29 ×10⁻⁶ cm/s.
One may read the efflux ratio as the permeability from basolateral to apical divided by that in the opposite direction, in the common usage. As for `CC[C@@]1(O)C(=O)OCc2c1cc1n(c2=O)Cc2cc3c(CN(C)C)c(O)ccc3nc2-1` [topotecan], the efflux ratio in [8] came out at 1.4. In addition, in [1], the Permeability class entry is “moderate”. This compound also gave a Papp in data set [2] of 3.1 ± 0.63 ×10⁻⁶ cm/s.
`CC(=O)N1CCN(c2ccc(OCC3COC(Cn4ccnc4)(c4ccc(Cl)cc4Cl)O3)cc2)CC1` (centres unmarked) [ketoconazole]: in [9], the “Effect on CYP3A4 activity (midazolam metabolite formation)” value is listed as “specific inhibition”.
Take `C[C@H]1O[C@@H](O[C@H]2[C@@H](O)C[C@H](O[C@H]3[C@@H](O)C[C@H](O[C@H]4CC[C@@]5(C)[C@H](CC[C@@H]6[C@@H]5C[C@@H](O)[C@]5(C)[C@@H](C7=CC(=O)OC7)CC[C@]65O)C4)O[C@@H]3C)O[C@@H]2C)C[C@H](O)[C@@H]1O` [digoxin]: in data set [10], the efflux ratio is over 2. The Permeability class entry in data set [1] is “moderate”. The Papp in [2] worked out at 8.53 ± 2.02 ×10⁻⁶ cm/s.
Take tumor necrosis factor alpha [TNF-α]: the LDH release result in data set [11] is on record as “significant increase”. The “Epithelial morphology (histology)” value in [12] was “altered the epithelial morphology”. Moreover, the “Gene expression of IL-6, IL-8, CCL2, CXCL10, ICAM1, and TNF-α” value in data set [13] was “upregulated”.
The compound `O=C1c2c(O)ccc(O)c2C(=O)c2c(NCCNCCO)ccc(NCCNCCO)c21` [mitoxantrone] returned a Papp in [2] of 0.2 ± 0.03 ×10⁻⁶ cm/s.
As to `O[C@@H](COc1cccc2ncccc12)CN1CCN([C@@H]2c3ccccc3[C@@H]3[C@H](c4ccccc42)C3(F)F)CC1` [zosuquidar], the “Effect on B to A transport of digoxin” value in data set [14] was “decreased the rate of B to A transport”.

The values are drawn from article PMC6135981 (iScience, 2018).
